Key:
Assay in all cases: relative viability (nuclei count vs DMSO), 5 days (fraction); higher = more cells survive
IPA-3 + AZD7762 = compound: C1=CC=C2C(=C1)C=CC(=C2SSC3=C(C=CC4=CC=CC=C43)O)O [IPA-3] + NC(=O)Nc1cc(-c2cccc(F)c2)sc1C(=O)N[C@H]1CCCNC1 [AZD7762] (partner 0.2 µM)
How it was run: (§1)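 Relative viability divides the nuclei count in treated wells by that in vehicle wells. Lung cancer cell lines were seeded in 1536-well plates, dosed by pin tool the next day, and fixed and stained after 5 days in one step with final 0.05% Triton X-100, 1% formaldehyde and 1 ug/ml Hoechst. Dosing was a single drug or a fixed anchor-drug dose plus five library-drug doses (not always all listed) in √10 steps, and values are medians of duplicate plates imaged at 4×.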

IPA-3 + Vorinostat = compound: C1=CC=C2C(=C1)C=CC(=C2SSC3=C(C=CC4=CC=CC=C43)O)O [IPA-3] + O=C(CCCCCCC(=O)Nc1ccccc1)NO [Vorinostat] (partner 1 µM)
How it was run: as §1

IPA-3 + Olaparib = compound: C1=CC=C2C(=C1)C=CC(=C2SSC3=C(C=CC4=CC=CC=C43)O)O [IPA-3] + O=C(c1cc(Cc2n[nH]c(=O)c3ccccc23)ccc1F)N1CCN(C(=O)C2CC2)CC1 [Olaparib] (partner 8 µM)
How it was run: as §1

Doramapimod + Vorinostat = compound: Cc1ccc(-n2nc(C(C)(C)C)cc2NC(=O)Nc2ccc(OCCN3CCOCC3)c3ccccc23)cc1 [Doramapimod] + O=C(CCCCCCC(=O)Nc1ccccc1)NO [Vorinostat] (partner 1 µM)
How it was run: as §1

| Cell Line | relative viability (IPA-3 + AZD7762; first compound 0.2 µM) | relative viability (IPA-3 + AZD7762; first compound 0.6325 µM) | relative viability (IPA-3 + AZD7762; first compound 2 µM) | relative viability (IPA-3 + AZD7762; first compound 6.325 µM) | relative viability (IPA-3 + AZD7762; first compound 20 µM) | relative viability (IPA-3 + Vorinostat; first compound 0.2 µM) | relative viability (IPA-3 + Vorinostat; first compound 0.6325 µM) | relative viability (IPA-3 + Vorinostat; first compound 2 µM) | relative viability (IPA-3 + Vorinostat; first compound 6.325 µM) | relative viability (IPA-3 + Vorinostat; first compound 20 µM) | relative viability (IPA-3 + Olaparib; first compound 0.2 µM) | relative viability (IPA-3 + Olaparib; first compound 0.6325 µM) | relative viability (IPA-3 + Olaparib; first compound 2 µM) | relative viability (IPA-3 + Olaparib; first compound 6.325 µM) | relative viability (IPA-3 + Olaparib; first compound 20 µM) | relative viability (Doramapimod + Vorinostat; first compound 0.02 µM) | relative viability (Doramapimod + Vorinostat; first compound 0.06325 µM) | relative viability (Doramapimod + Vorinostat; first compound 0.2 µM) | relative viability (Doramapimod + Vorinostat; first compound 0.6325 µM) | relative viability (Doramapimod + Vorinostat; first compound 2 µM) |
| --- | --- | --- | --- | --- | --- | --- | --- | --- | --- | --- | --- | --- | --- | --- | --- | --- | --- | --- | --- | --- |
| NCI-H358 | 0.618 | 0.566 | 0.5 | 0.508 | 0.48 | 0.785 | 0.618 | 0.783 | 0.619 | 0.803 | 0.649 | 0.514 | 0.879 | 0.505 | 0.564 | 0.69 | 0.669 | 0.66 | 0.762 | 0.594 |
| PC-3 [JPC-3] | 0.926 | 1.34 | 0.916 | 0.741 | 0.807 | 0.821 | 0.816 | 0.896 | 0.73 | 0.767 | 1.11 | 1.08 | 1.28 | 1.05 | 1.13 | 0.967 | 1.39 | 1.22 | 0.564 | 0.744 |
| NCI-H1792 | 0.97 | 0.519 | – | 0.604 | 0.572 | – | – | – | – | – | 0.506 | 0.48 | – | 0.395 | 0.225 | – | – | – | – | – |
| NCI-H596 | 1.1 | 1.07 | 1.11 | 1.21 | 1.3 | 0.722 | 0.772 | 0.578 | 0.694 | 0.656 | 0.638 | 0.708 | 0.773 | 0.768 | 0.748 | 0.643 | 0.672 | 0.616 | 0.605 | 0.561 |
| RERF-LC-KJ | 1.08 | 0.955 | 1.01 | 0.921 | 1.15 | 0.829 | 0.729 | 0.726 | 0.653 | 0.696 | 0.92 | 0.942 | 0.982 | 0.771 | 0.424 | 0.785 | 0.715 | 0.741 | 0.427 | 0.729 |
| NCI-H322M | 0.503 | 0.6 | 0.616 | 0.808 | 0.786 | 0.92 | 0.948 | 1.02 | 1.07 | 1.11 | 0.91 | 0.786 | 0.817 | 0.776 | 0.746 | 0.889 | 0.943 | 0.979 | 0.998 | 0.94 |
| COR-L 105 | – | – | – | – | – | 1.08 | 0.543 | 0.907 | 0.995 | 0.79 | 0.757 | 0.622 | 0.663 | 0.755 | 0.665 | 0.671 | 0.881 | 0.763 | 1 | 0.764 |
| NCI-H1993 | 0.971 | 0.922 | 0.85 | 0.738 | 0.726 | 1.15 | 0.639 | 0.758 | 0.725 | 0.918 | 1.22 | 1.08 | 0.995 | 1.23 | 1.08 | 0.835 | 0.723 | 0.819 | 1.18 | 0.834 |
| NCI-H1437 | 1.2 | 1.08 | 1.18 | 1.06 | 1.19 | 0.863 | 0.644 | 0.691 | 0.783 | 0.826 | 0.629 | 0.597 | 0.639 | 0.608 | 0.565 | 0.789 | 0.912 | 0.836 | 0.855 | 0.688 |
| NCI-H2023 | – | – | – | – | – | 0.866 | 0.681 | 0.789 | 0.699 | 0.839 | 0.514 | 0.503 | 0.624 | 0.547 | 0.395 | 0.718 | 0.664 | 0.556 | 0.607 | 0.519 |
| EBC-1 | – | – | – | – | – | – | – | – | – | – | 0.904 | 0.668 | 0.715 | 0.607 | 0.493 | – | – | – | – | – |
| NCI-H520 | – | – | – | – | – | 0.713 | 0.849 | – | 0.579 | 0.796 | 0.322 | 0.278 | – | 0.367 | 0.298 | 0.672 | 0.755 | 0.653 | 0.731 | 0.609 |
| NCI-H1650 | – | – | – | – | – | 1.02 | 0.47 | 0.531 | 0.555 | 0.729 | 0.947 | 0.74 | 0.877 | 0.715 | 0.746 | 0.571 | 0.586 | 0.553 | 0.729 | 0.528 |
| SK-MES-1 | – | – | – | – | – | 1.27 | 1.03 | 1.09 | 0.925 | 1.04 | 0.763 | 0.694 | 0.652 | 0.498 | 0.241 | 1.21 | 1.09 | 1.07 | 1.12 | 1.11 |
| NCI-H1299 | – | – | – | – | – | – | – | – | – | – | 1.02 | 0.953 | 0.983 | 0.963 | 0.983 | – | – | – | – | – |
| A549 | – | – | – | – | – | – | – | – | – | – | 0.375 | 0.312 | 0.302 | 0.331 | 0.414 | – | – | – | – | – |
| NCI-H1703 | 0.119 | 0.121 | 0.126 | 0.145 | 0.133 | – | – | – | – | – | 0.807 | 0.479 | 0.38 | 0.459 | 0.581 | – | – | – | – | – |
| NCI-H661 | – | – | – | – | – | 0.796 | 0.764 | 0.865 | 0.732 | 0.778 | 0.784 | 0.705 | 0.786 | 0.716 | 0.738 | 0.815 | 0.74 | 0.797 | 0.788 | 0.767 |
| NCI-H2009 | – | – | – | – | – | 0.858 | 0.685 | 0.89 | 0.723 | 0.642 | 0.662 | 0.68 | 0.708 | 0.635 | 0.622 | 0.765 | 0.745 | 0.762 | 0.92 | 0.777 |
| Calu-6 | – | – | – | – | – | – | – | – | – | – | 0.629 | 0.503 | 0.617 | 0.596 | 0.426 | – | – | – | – | – |
| COR-L23 | – | – | – | – | – | 0.561 | 0.471 | 0.416 | 0.232 | 0.307 | 0.314 | 0.34 | 0.406 | 0.281 | 0.301 | 0.449 | 0.489 | 0.386 | 0.537 | 0.424 |
| SW 1573 | – | – | – | – | – | 1.05 | 0.655 | 0.865 | 0.958 | 0.536 | 0.665 | 0.403 | 0.404 | 0.403 | 0.0864 | 0.9 | 0.549 | 0.581 | 0.791 | 0.539 |

Reference: the supplement of paper PMC10307832
